Our source for the IC50 values is PubChem BioAssay AID2401 (Southern Research Specialized Biocontainment Screening …, 2010).

What is called IC50 is the concentration needed to halve the response being measured.

For this assay, the system named is S. Typhimurium GFP reporter counter-screen, fluorescence, 4 h. The assay is described as follows: nmpC-GFP reporter counter-screen in S. Typhimurium, dose response, counter-screen for PhoP regulon inhibitor project, Salmonella Typhimurium, GFP fluorescence (AID 2401).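 Note: S. typhimurium with Mg-insensitive nmpC-GFP reporter grown at 10 µM Mg2+; drop in reporter fluorescence reflects general culture growth inhibition.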 For orientation: Counterscreens check selectivity or assay interference.
For `CCn1cc(C(=O)O)c(=O)c2cc(F)c(N3CCN(C(=S)Nc4ccc(OC)cc4)CC3)cc21`, the IC50 is 15.3 µM.

Take `CCCCCCCCCn1c2c(c(=N)c3c1CCC3)CCC2`: the concentration for half-maximal inhibition (IC50) is 37.2 µM.

With `Cc1c2ccncc2c(C)c2c1[nH]c1ccccc12`, the IC50 is 19.6 µM.

Turning to `CCOC(=O)c1ccc(-c2ccc(C3Nc4ccccc4C(=O)N3O)o2)cc1` (configuration not stated), the IC50 is 142 µM.

Regarding `CCCCCOc1ccc(CSC(=N)N)cc1[N+](=O)[O-]`, the IC50 was 46.8 µM.

With `CCCCCCCCNc1ncnc2ccccc12`, the IC50 was 150 µM.

Consider `C=CC#CC[N+]1(CC#Cc2ccccc2)CCOCC1`, for which the IC50 was 34.3 µM.

As for `CCCCCCOC(=O)C[N+](C)(C)CCOC1CC2CCC1(C)C2(C)C` (configuration not stated), the IC50 was 31.9 µM.

`O=C(N/N=C\c1cccc([N+](=O)[O-])c1O)C1COc2ccccc2O1` (configuration not stated): the IC50 was 54.6 µM.

As for `Cc1sc2ncnc(N/N=C/c3ccccc3O)c2c1C`, the IC50 is 72.3 µM.

In the case of `CN(O)/C=c1/ccc2c(n1)C(=O)C=CC=2`, the IC50 was 35 µM.

Turning to `c1cnc2c(c1)ccc1cccnc12`, the IC50 was 24.5 µM.

Regarding `COc1ccc(Nc2cc(C)c3c(O)cccc3n2)cc1`, the IC50 was 47.2 µM.

As to `O=C(Oc1c(CN2CCOCC2)cc(Cl)c2cccnc12)c1ccc(F)cc1`, the IC50 was 136 µM.

Consider `CNC(=S)N1CCN(c2c(F)cc3c(=O)c(C(=O)O)cn(C4CC4)c3c2OC)CC1C` (configuration not stated), for which the IC50 was 44.2 µM.

Consider `CCN1/C(=C/C=C/C=C/c2sc3ccccc3[n+]2CC)Sc2ccccc21`, for which the IC50 was 17.8 µM.

As for `O=C(N/N=C\C=C\c1ccc([N+](=O)[O-])o1)c1cccs1`, the IC50 is 20.9 µM.

As for `CN1CCN(C(c2ccc(C(F)(F)F)cc2)c2cc(Cl)c3cccnc3c2O)CC1` (configuration not stated), the IC50 is 21 µM.

Regarding `O=C(O)CSc1cc(NS(=O)(=O)c2cccc([N+](=O)[O-])c2)c2ccccc2c1O`, the IC50 was 83.5 µM.

As for `CCC(C)(C)c1ccc(OCCCC[n+]2ccc(C)cc2)c(C(C)(C)CC)c1`, the IC50 was 48.4 µM.

Consider `O=C(C[n+]1cc(-c2ccc(Cl)cc2)n2c1CCC2)Nc1nc(-c2ccc(F)cc2)cs1`, for which the IC50 is 38.3 µM.

With `Cc1cc(C(=O)N/N=C/c2ccc(O)c(O)c2O)c(C)n1-c1ccccc1`, the IC50 was 22.8 µM.

Turning to `CCn1cc(C(=O)O)c(=O)c2cc(F)c(N3CCN(C(=O)Nc4ccccc4)CC3)cc21`, the IC50 is 75.2 µM.

As to `NC(N)=NN=C1CCCCCCCCCCC1`, the IC50 is 77.3 µM.

For `O=C(N/N=C/c1c[nH]c2ccccc12)c1cc(-c2cccc3ccccc23)n[nH]1`, the IC50 was 85.3 µM.

Consider `O=C(N/N=C/c1cc([N+](=O)[O-])ccc1O)C1CC1`, for which the IC50 is 34 µM.

With `O=C(N/N=C/c1ccc([N+](=O)[O-])s1)C(O)c1ccccc1` (configuration not stated), the IC50 is 49 µM.

On to `O=c1[nH][nH]c(-c2ccccc2O)c1C(C[N+](=O)[O-])c1cccc(Cl)c1` (configuration not stated), for which the IC50 is 69.8 µM.

`CN1CCc2c(sc(NC(=O)c3ccc([N+](=O)[O-])o3)c2C(N)=O)C1`: the IC50 is 47.7 µM.

For the compound `C#CCOCCOCCOCCNc1nc(N2CCN(C(=O)CCCCCCCCCCNC(=O)[C@H](CCCCN)n3cc(C[C@@H](C)CC)nn3)CC2)nc(N2CCN(C(=O)CCCCCCCCCCNC(=O)[C@H](CCCN=C(N)N)n3cc(C[C@@H](C)CC)nn3)CC2)n1`, the IC50 was 78 µM.

In the case of `Cc1ccc(C(=O)O)cc1N=Cc1cc(Br)cc(Br)c1O`, the IC50 is 85.6 µM.

As to `CCN(CC)c1ccc(/C=N/Nc2nc3ccccc3[nH]2)c(O)c1`, the IC50 is 33.7 µM.

As for `Oc1c(CN2CCc3ccccc3C2)cc(Cl)c2cccnc12`, the IC50 is 17.4 µM.

Regarding `Cc1cc(SCC(=O)N/N=C/c2ccc(O)c(O)c2O)c(C)cc1Br`, the IC50 was 30.6 µM.

Consider `O=C(NC(=S)NNC(=O)c1ccccc1O)c1ccco1`, for which the IC50 is 41.5 µM.

Turning to `CCCCCCCOC(=O)C[N+](C)(C)CCOC1CC2CCC1(C)C2(C)C` (configuration not stated), the IC50 was 20.1 µM.

On to `COc1c(N2CCN(C(=S)Nc3ccccc3F)C(C)C2)c(F)cc2c(=O)c(C(=O)O)cn(C3CC3)c12` (configuration not stated), for which the IC50 is 15.3 µM.

With `CC[C@@H](C)[C@H](CNC)NC[C@@H](Cc1cccc2ccccc12)NCCc1cccc(C(F)(F)F)c1`, the IC50 was 32.3 µM.

In the case of `O=c1c(O)cccc2cc(O)c(O)c(O)c12`, the IC50 was 21.9 µM.

Turning to `CCn1cc(C(=O)O)c(=O)c2cc(F)c(N3CCN(C)CC3)cc21`, the half-inhibitory concentration (IC50) is 2.15 µM.

Regarding `CN(C)CCCN(C(=O)CCc1ccccc1)c1nc2ccc(Cl)cc2s1`, the IC50 is 39 µM.

With `Cc1cc(NC(c2cccnc2)c2ccc3cccnc3c2O)no1` (configuration not stated), the IC50 is 105 µM.

With `CC(=O)NC(c1ccc2ccccc2c1)c1ccc2cccnc2c1O` (configuration not stated), the IC50 was 100 µM.

As for `COC12C(COC(N)=O)C3=C(C(=O)C(C)=C(N)C3=O)N1CC1C2N1C` (configuration not stated), the IC50 is 77.2 µM.

Regarding `CNC[C@H](Cc1ccccc1)NC[C@@H](Cc1cccc2ccccc12)NCCc1ccc(C)cc1`, the IC50 is 26.2 µM.

Consider `O=C1OCC(CO)(CO)N=C1NNc1ccc(Cl)c(Cl)c1`, for which the IC50 is 109 µM.

Take `O=C1C=C(N2CCOCC2)c2ccccc2C1=O`: the IC50 was 55.5 µM.

In the case of `Cc1[nH]n(-c2ccccc2)c(=O)c1C(C[N+](=O)[O-])c1ccc(F)cc1` (configuration not stated), the IC50 was 78.8 µM.

As to `Cc1cc2nc3ccc(=[N+](C)C)cc-3sc2cc1N`, the IC50 was 36.5 µM.

For the compound `C#CCOCCOCCOCCNc1nc(N2CCN(C(=O)CCCCCCCCCCNC(=O)[C@H]([C@@H](C)CC)n3cc(CCCCN=C(N)N)nn3)CC2)nc(N2CCN(C(=O)CCCCCCCCCCNC(=O)[C@H](CCCN=C(N)N)n3cc(C[C@@H](C)CC)nn3)CC2)n1`, the IC50 was 45.9 µM.

For `Cc1cc(/C=N/n2c(COc3ccccc3)nc3ccccc3c2=O)c(O)c([N+](=O)[O-])c1`, the IC50 was 56.5 µM.

As to `Cc1ccc(C)c(/C=C/C(=O)c2ccccc(=O)c2O)c1`, the IC50 is 38.9 µM.

On to `O=[N+]([O-])c1cc(CN2CCCC2)c2cccnc2c1O`, for which the IC50 is 40.6 µM.

For `O=C(Nc1nnc(-c2cccs2)o1)c1cccc(Oc2ccccc2)c1`, the IC50 is 40.8 µM.

For `O=C(CN1CC(c2ccccc2)CC1=O)N/N=C/c1cc(Br)ccc1O` (configuration not stated), the IC50 was 139 µM.

As to `Cc1ccc(Nc2cc(C)nn2-c2nc(C)cc(=O)[nH]2)cc1`, the IC50 is 13.1 µM.

Consider `CCOc1ccc(Nc2nc(N)c3ccccc3n2)cc1`, for which the IC50 was 86.2 µM.

Consider `Oc1c(CN2CCOCC2)cc(COCc2ccccc2)c2cccnc12`, for which the IC50 is 69.5 µM.

As for `O=[N+]([O-])c1ccc(O)c2ncccc12`, the IC50 is 2.37 µM.

In the case of `O=[N+]([O-])c1cc(F)c2cccnc2c1O`, the IC50 was 9.05 µM.

For the compound `CCCCCCCCCCCCCCCC[N+](C)(C)CCN(Cc1ccc(OC)cc1)c1ncccn1`, the IC50 was 20.2 µM.

Turning to `CCN(CC)S(=O)(=O)c1cccc(C(=O)N/N=C/c2ccc(O)c(O)c2O)c1`, the IC50 was 98.6 µM.

`O=C(NNC(=O)c1cnccn1)c1ccc(Cl)cc1`: the IC50 was 117 µM.

For `CCn1cc(C(=O)O)c(=O)c2cc3c(cc21)OCO3`, the IC50 was 80.6 µM.

Regarding `O=C(N/N=C/c1coc2ccc(Cl)cc2c1=O)c1cc(O)cc(O)c1`, the IC50 was 88 µM.

`COc1cc(C)c(Cc2cnc(N)nc2N)cc1OC`: the IC50 was 2.03 µM.

For `O=C1C(=O)c2ccccc2-c2ccccc21`, the IC50 was 10.7 µM.

Consider `CC(=O)NC(c1ccc(C)cc1)c1cc([N+](=O)[O-])c2cccnc2c1O` (configuration not stated), for which the IC50 is 33.5 µM.

Regarding `Oc1c(Cl)cc(Cl)c2cccnc12`, the IC50 is 10.5 µM.

`Cc1cc(C)c(NC(=O)c2cn3c4c(c(N5CCN(C)CC5)c(F)cc4c2=O)OCC3C)c(C)c1` (configuration not stated): the IC50 was 34.2 µM.

As for `CCn1cc(C(=O)O)c(=O)c2cc(F)c(N3CCN(C(=S)NC(=O)c4ccc(F)cc4)CC3)cc21`, the IC50 was 104 µM.

In the case of `CCCC(=O)NC(c1ccc(C)cc1)c1ccc2cccnc2c1O` (configuration not stated), the IC50 is 100 µM.
